This is an account of results in US20260356803A1, “Nicotinamide derivatives” (Board of Regents, The University of Texas System, priority 2024, published 2026).

One series deals with S462 cells. In words: Metabolism in S462 cells. It is filed as cell-based, human. The settings on record: 500 nM compound. As for the experimental part:
We reasoned that 1 and 9 would likely be metabolized to 1-mononucleotide (1-MN) and 9-mononucleotide (9-MN) by NAMPT and then to 1-adenine dinucleotide (1-AD) and 9-adenine dinucleotide (9-AD) by NMNAT1. Thus, we analyzed extracts from cell-free reactions that co-incubate each compound with NAMPT, NMNAT1, PRPP, and ATP by high-resolution mass spectrometry to identify these putative metabolites based on exact mass. […] To test whether these compound metabolites were also produced in cells, we analyzed metabolic extracts from cells treated with either 1 or 9.
Prior to the experiment, cells were cultured in low-Nam DMEM for at least 1 passage (3 days) to deplete intracellular Nam. 15,000 cells were plated in a 96-well plate with 100 μL low-Nam media. At appropriate time points, 500 nM 1 or 9, or equal volume of vehicle (DMSO) were added using TECAN. 200 μL of acetonitrile with 0.1% formic acid were added to the assayed wells. For the 0-hour time point, compound or vehicle was added after the addition of acetonitrile and formic acid. […] The supernatants were filtered through 0.2 μm PVDF filters and analyzed by LC-MS/TOF. […]
Data analysis for TOF data was performed using SCIEX MultiQuant software version 3.0.3. For each of the compounds monitored, the theoretical exact m/z was calculated. […]

Series [1] can be described thus: Mouse pharmacokinetics in plasma and brain. It is filed as in vivo, CD1 mice. The settings on record: for Kp / Cmax: mouse; for Kp: read-out: brain to blood exposure (AUCBrain/AUCplasma). As for the experimental part: GBM, which is reported to be a potential target for these compounds, is an intracranial tumor, and thus, effective drugs must cross the blood-brain barrier. Therefore, in addition to plasma, we analyzed compound and metabolite levels in mouse brain. Following the administration of a single 5 mg/kg intravenous (IV) injection of either 1 or 9, we quantified the levels of each compound in both plasma and brain. […] The brain to blood exposure, represented by the ratio of the area under the curve between brain and plasma (AUCBrain/AUCplasma), was 3.45 for 1 and 2.85 for 9.
Next, we analyzed the levels of metabolites that result from the metabolism of 1 and 9 through the NAD salvage pathway.
MS conditions were identical. The HPLC conditions were as follows: Solvent A: water including 0.1% formic acid (LC-MS) grade. Solvent B: Acetonitrile including %0.1 formic acid (LC-MS) grade. Gradient condition was 0-3 min: 3% B, 17 min: 60.5% B, 17.1 min Flow to 0.25 mL/min, 17 to 20 min hold 95% B: 20.5-25 min hold 3% B, 24.5 flow to 0.2 mL/min. Total run time: 25 mins.
Data analysis for TOF data was performed using SCIEX MultiQuant software version 3.0.3. For each of the compounds monitored, the theoretical exact m/z was calculated. A range of ±10 ppm was extracted around the theoretical mass and used to create an analytical method in MultiQuant. Extracted areas for parent compounds 1 and 9 in S462 cells and mice were normalized to the internal standard tolbutamide, while parent compounds 1 and 9 in cell-free reactions and all metabolite levels were presented as peak areas without normalization.
Six week old female CD1 mice (Charles River, Wilmington, MA) were dosed with 5 mg/kg 1 or 9 formulated as 5% DMSO/10% PEG400/85% D5W (5% dextrose in water, pH 7.4) in a volume of 0.2 ml/mouse. Animals were euthanized by inhalation overdose of CO2 at various points postdose. Blood was collected by cardiac puncture into K2EDTA tubes and kept on ice until they were spun at 9600×g for 10 min at 4 °C for plasma. Brains were harvested, rinsed briefly with PBS to remove surface adhering blood, weighed and then snap frozen in liquid nitrogen before storing along with plasma at −80 °C until processing. Brains were homogenized in a volume of PBS equal to 3× their weight in g. One hundred microliters of plasma or brain homogenate was mixed with […] of methanol containing 0.15% formic acid and 37.5 ng/ml tolbutamide internal standard. Samples were vortexed for 15 seconds, incubated at RT for 10 min and then spun at 16,100×g. The resulting supernatant was spun a second time and then filtered through 0.2 μm PVDF filters and analyzed by LC-MS. Samples were quantitated in comparison to a standard curve prepared by spiking 1 or 9 into blank plasma or brain homogenate. The limit of quantitation was set as the lowest point on the standard curve that upon back-calculation was within 20% of the nominal value and was at least three-fold above the average peak area observed for blank plasma or brain. The LOQ for 1 was 1 ng/ml in plasma and 5 ng/ml in brain. The LOQ for 9 was 5 ng/ml in plasma and 10 ng/ml for brain homogenate. Brain concentrations were adjusted to ng/g wet tissue weight and then an estimate was made of drug in brain vasculature using the measured plasma concentration and subtracted from the measured brain concentration.^30 Pharmacokinetic parameters were calculated using the noncompartmental analysis tool with sparse sampling in Phoenix WinNonlin (Certara Corp, Princeton, NJ).

Setting [2] is: brain, 5 mg/kg IV single dose, read-out: brain Cmax.
[3] abbreviates: brain, 5 mg/kg IV, assuming brain density of 1 g/ml, read-out: brain Cmax.
The mark [4] stands for this setting: plasma, 5 mg/kg IV single dose, molar, read-out: plasma maximum concentration (Cmax).
Where [5] appears, read: plasma, 5 mg/kg IV single dose, read-out: plasma maximum concentration (Cmax).

SMILES strings stand for the structures. Where two headings read alike, the source gives them in different places.

For `O=C(Nc1cccnc1)c1cccs1` [Compound 1, N-(pyridin-3-yl)thiophene-2-carboxamide], the “levels of parent compound over time in cells” value in the series with S462 cells was “time-dependent depletion”. For the same compound, in series [1] (5 mg/kg IV), the brain penetration entry is given as “brain-penetrant”. For the same compound, in series [1] (5 mg/kg IV), the “persistence in brain versus plasma” value was “persisted longer in the brain than in the plasma”. In addition, the Kp in series [1] (brain, 5 mg/kg IV) worked out at 3.45. Besides, the Cmax in series [1] (setting [2]) was 2220 ng/g; in series [1] (setting [3]), 10.8 µM; in series [1] (setting [4]), 5.65 µM; in series [1] (setting [5]) it was 1160 ng/mL. In series [1] (plasma, 5 mg/kg IV), the “rapidly cleared from plasma by” value was no more than 90 min.

`O=C(Nc1cccs1)c1cccnc1` [Compound 9, N-(Thiophen-2-yl)nicotinamide]: the “levels of parent compound over time in cells” value in the series on S462 cells is recorded as “time-dependent depletion”. The brain penetration entry in series [1] (5 mg/kg IV) was “brain-penetrant”. In series [1] (5 mg/kg IV), the “persistence in brain versus plasma” value was “persisted longer in the brain than in the plasma”. Besides, in series [1] (brain, 5 mg/kg IV), the Kp was 2.85. The Cmax in series [1] (setting [2]) turned out to be 1600 ng/g; in series [1] (setting [3]), 7.8 µM; in series [1] (setting [4]) it was 23.7 µM; in series [1] (setting [5]) it was 4830 ng/mL. Further, the “rapidly cleared from plasma by” value in series [1] (plasma, 5 mg/kg IV) is no more than 90 min.
